# Where two headings read alike, the source gives them in different places.
# How the values were obtained:
# kynurenin-3-hydroxylase [1] = target: T1, kynurenin-3-hydroxylase (Rattus norvegicus, UniProt O88867); test: in vitro kynurenin-3-hydroxylase inhibition (crude rat kidney mitochondrial preparation); assay type: biochemical; conditions: for remaining activity at 1 µM: read-out: % of control at 1 μM; for IC50: pH 7.4
# T1 construct: The enzyme source is a crude rat kidney mitochondrial preparation; from tissue; host or cells: rat kidney, crude mitochondrial preparation
# T1 sequence (O88867 whole entry): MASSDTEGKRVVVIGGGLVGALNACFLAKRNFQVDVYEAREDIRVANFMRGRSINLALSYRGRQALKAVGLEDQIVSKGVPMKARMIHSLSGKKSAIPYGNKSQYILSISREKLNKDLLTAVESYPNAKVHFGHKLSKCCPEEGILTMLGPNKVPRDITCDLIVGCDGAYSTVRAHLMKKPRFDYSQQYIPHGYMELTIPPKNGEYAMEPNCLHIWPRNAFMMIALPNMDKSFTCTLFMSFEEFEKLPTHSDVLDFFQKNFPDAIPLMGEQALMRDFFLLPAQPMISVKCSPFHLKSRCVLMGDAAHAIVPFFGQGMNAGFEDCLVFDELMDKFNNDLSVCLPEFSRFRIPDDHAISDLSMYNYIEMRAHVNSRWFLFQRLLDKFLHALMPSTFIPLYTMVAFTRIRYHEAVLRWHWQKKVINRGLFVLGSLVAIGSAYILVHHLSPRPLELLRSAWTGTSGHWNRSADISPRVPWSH
# Excerpt: (§1) Determination of kynurenin-3-hydroxylase in vitro and ex vivo
# (§2) The kynurenin-3-hydroxylase inhibiting activity of the compounds in accordance with the invention can be determined in vitro and ex vivo using standard methods. The preparations to be tested were examined in the tests described hereinafter, which are based on the methods published by J. B. Erickson, E. M. Flanagan, S. Russo and J. F. Reinhard [Anal. Biochem. 1992, 205: 257-262].
# The enzyme source is a crude rat kidney mitochondrial preparation which, taken up in the ratio 1:70 (weight/volume) in a potassium phosphate buffer of pH 7.4, containing EGTA, is kept in the frozen state at -80° C. until used. The enzyme test for the in vitro determination differs from the ex vivo determination described hereinafter by the use of the mentioned mitochondreal preparation in place of tissue homogenates as the enzyme source and by a pre-incubation of the enzyme with the substances to be tested at 37° C. for 15 min.
# (§3) Measurement of the enzyme activity
# (§4) Scheme of a typical procedure carried out in an incubation tube of appropriate size or on a microtitre plate:
# (§5) 25 μl of the substance to be tested in a suitable concentration (in vitro) or homogenization buffer (ex vivo)
# (§6) 25 μl of potassium phosphate buffer 0.2M containing 0.4 units of glucose-6-phosphate dehydrogenase
# (§7) 25 μl of the mitochondrial preparation (in vitro) or of the kidney or liver homogenate (ex vivo)
# pre-incubation: 15 min at 37° C. (only in vitro)
# (§8) 25 μl of the substrate L-kynurenin containing L-^3 H-3-kynurenin (0.1 μCi)
# (§9) 100 μmol, magnesium chloride 4 mmol, NADPH 200 μmol, glucose-6-phosphate 3 mmol (concentration data as final concentrations)
# (§10) incubation: 10 min (in vitro) or 2 min (ex vivo) at 37° C. on a shaking machine
# (§11) 150 μl of a 10% suspension of active charcoal (Norit A) in water (to remove unreacted labelled substrate)
# (§12) shaking for about one minute
# (§13) centrifugation for 4 min at 4000 revolutions/min
# (§14) transfer of 50 μl of the charcoal-free supernatant into a counting vessel
# (§15) addition of 150 μl of an appropriate scintillator to count the radioactivity of the now-tritiated water, which is a measurement of the enzyme activity which exists.
# The IC50 value is a measurement of the strength of the in vitro enzyme inhibition which is brought about by the tested substances. It is the concentration of test substance which brings about a 50% inhibition of the enzyme activity.
# kynurenin-3-hydroxylase [2] = target: T1, kynurenin-3-hydroxylase; test: ex vivo kynurenin-3-hydroxylase inhibition in the liver after oral administration to rats; conditions: 2 hours; for ED50: po
# Protocol: as §1, §2
# The substances to be tested are administered orally to male rats of 100-140 g body weight in a dosage of 30 μmol/kg. The kidneys and a part of the liver are removed from the animals, which are decapitated after 2 hours, and frozen at -80° C. until used. In order to measure the enzyme activity, the organs are homogenized in the ratio 1:10 (weight/volume) in sucrose, containing TRIS/HCl, pH 7.4 and PMSF.
# as §3, §4, §5, §6, §7, §8, §9, §10, §11, §12, §13, §14, §15
# The ED50 value or, where this is not achieved, the percentage inhibition after administration of a single dosage, is a measurement of the strength of the ex vivo enzyme inhibition which is brought about by the tested substances. The ED50 value is that dosage of test substance which leads to a 50% enzyme inhibition in the investigated tissue homogenates.
# Enterococcus faecalis = test: antibacterial activity, MIC by microdilution; assay type: cell-based
# Protocol: (§16) Method for the determination of antibacterial activity
# (§17) The minimum inhibitory concentration (MIC in μg/ml) was determined by the microdilution method in which an Isosensotest bouillon (Oxoid) was used and was complemented with 3% horse blood for Streptococcus and Listeria. The inoculation amount was approximately 5×10^5 CFU/ml. After incubation at 37° C. for 18 h the plates were evaluated at 650 nm. The MIC was determined as the lowest concentration of active substance which brought about a growth inhibition of ≥80% compared to the control.
# Escherichia coli = test: antibacterial activity, MIC by microdilution; assay type: cell-based; conditions: ATCC25922, strain ATCC 25922, BCB 1001/04, 37° C., 18 h
# Protocol: as §16, §17
# Listeria monocytogenes = test: antibacterial activity, MIC by microdilution; assay type: cell-based; conditions: 18 h
# Protocol: as §16, §17
# Pseudomonas aeruginosa = test: antibacterial activity, MIC by microdilution; assay type: cell-based; conditions: 18 h
# Protocol: as §16, §17
# Staphylococcus aureus = test: antibacterial activity, MIC by microdilution; assay type: cell-based
# Protocol: as §16, §17
# Streptococcus pneumoniae = test: antibacterial activity, MIC by microdilution; assay type: cell-based
# Protocol: as §16, §17
# Streptococcus pyogenes = test: antibacterial activity, MIC by microdilution; assay type: cell-based; conditions: 18 h
# Protocol: as §16, §17
# [3] = ATCC29212, strain ATCC 29212, BCB 1003/28, 37° C., 18 h, read-out: MIC
# [4] = strain BK23, BCB 1003/55, 3% horse blood, 37° C., read-out: MIC
# [5] = strain BA, BCB 1004/01, 37° C., read-out: MIC
# [6] = ATCC25923, strain ATCC 25923, BCB 1003/04, 37° C., 18 h, read-out: MIC
# [7] = ATCC49619, strain ATCC 49619, 3% horse blood, 37° C., 18 h, read-out: MIC
# [8] = strain B15, BCB 1003/35, 3% horse blood, 37° C., read-out: MIC
Compound,remaining activity at 1 µM (kynurenin-3-hydroxylase [1]),IC50 (kynurenin-3-hydroxylase [1]),% of control 30 μM/kg p.o in the liver (kynurenin-3-hydroxylase [2]),ED50 (kynurenin-3-hydroxylase [2]),MIC (Escherichia coli),also measured
"O=[N+]([O-])c1cccc(-c2csc(NS(=O)(=O)c3ccc4ccccc4c3)n2)c1 [D, Naphthalene2-sulfonic acid [4(3-nitro-phenyl)-thiazol-2-yl)-amide]",4%,30 nM,20.00%,–,–,–
"Cc1ccc(S(=O)(=O)Nc2nc(-c3cccc([N+](=O)[O-])c3)cs2)cc1 [Example 3, 4-Methyl-N-[4-(3-nitro-phenyl)-thiazol-2-yl]-benzene-sulfonamide]",–,40 nM,43.00%,–,–,–
"COc1ccc(-c2csc(NS(=O)(=O)c3ccc(C)cc3)n2)cc1OC [Example 6, N-[4-(3,4-Dimethoxy-phenyl)-thiazol-2-yl]-4-methyl-benzenesulfonamide]",4.58%,65 nM,54.00%,–,–,–
"COc1ccc(S(=O)(=O)Nc2nc(-c3cccc([N+](=O)[O-])c3)cs2)cc1 [Example 8, 4-Methoxy-N-[4-(3-nitro-phenyl)-thiazol-2-yl]-benzenesulfonamide]",5%,44 nM,23.00%,9 µmol/kg,–,–
"COc1ccc(S(=O)(=O)Nc2nc(-c3cccc([N+](=O)[O-])c3)cs2)cc1OC [Example 21, 3,4-Dimethoxy-N-[4-(3-nitro-phenyl)-thiazol-2-yl]-benzenesulfonamide]",2%,26 nM,10.00%,4.7 µmol/kg,–,–
"Cc1ccc(S(=O)(=O)Nc2nc(-c3cc(C(F)(F)F)ccc3F)cs2)cc1 [Example 32, N-[4-(2-Fluoro-5-trifluoromethyl-phenyl)-thiazol-2-yl]-4-methyl-benzenesulfonamide]",2.5%,43 nM,–,17 µmol/kg,–,–
"COc1ccc(S(=O)(=O)Nc2nc(-c3cc(C(F)(F)F)ccc3F)cs2)cc1 [Example 41, N-[4-(2-fluoro-5-trifluoromethyl-phenyl)-thiazol-2-yl]-4-methoxy-benzenesulfonamide]",18%,50 nM,–,17 µmol/kg,–,–
"Nc1ccc(S(=O)(=O)Nc2nc(-c3cc(C(F)(F)F)ccc3F)cs2)cc1 [Example 42, 4-Amino-N-[4-(2-fluoro-5-trifluoromethyl-phenyl)-thiazol-2-yl]benzenesulfonamide]",1.4%,15 nM,–,4.6 µmol/kg,256 µg/mL,MIC (Enterococcus faecalis; [3]): > 256 µg/mL; MIC (Listeria monocytogenes; [4]): > 256 µg/mL; MIC (Pseudomonas aeruginosa; [5]): > 256 µg/mL; MIC (Staphylococcus aureus; [6]): 16 µg/mL; MIC (Streptococcus pneumoniae; [7]): > 256 µg/mL; MIC (Streptococcus pyogenes; [8]): 16 µg/mL
"COc1ccc(S(=O)(=O)Nc2nc(-c3cc(C(F)(F)F)ccc3F)cs2)cc1OC [Example 46, 3,4-Dimethoxy-N-[4-(2-fluoro-5-trifluoromethyl-phenyl)-thiazol-2-yl]benzenesulfonamide]",4.7%,22 nM,–,5.3 µmol/kg,> 256 µg/mL,MIC (Enterococcus faecalis; [3]): > 256 µg/mL; MIC (Listeria monocytogenes; [4]): > 256 µg/mL; MIC (Pseudomonas aeruginosa; [5]): > 256 µg/mL; MIC (Staphylococcus aureus; [6]): 32 µg/mL; MIC (Streptococcus pneumoniae; [7]): > 256 µg/mL; MIC (Streptococcus pyogenes; [8]): 64 µg/mL
"Cc1cc(NS(=O)(=O)c2ccc(N)cc2)no1 [SMZ, sulfamethoxazole, reference compound]",–,–,–,–,128 µg/mL,"MIC (Enterococcus faecalis; ATCC29212, 18 h): > 256 µg/mL; MIC (Listeria monocytogenes): > 256 µg/mL; MIC (Pseudomonas aeruginosa): > 256 µg/mL; MIC (Staphylococcus aureus; ATCC25923, 18 h): 32 µg/mL; MIC (Streptococcus pneumoniae; ATCC49619, 18 h): > 256 µg/mL; MIC (Streptococcus pyogenes): 16 µg/mL"
"COc1cc(Cc2cnc(N)nc2N)cc(OC)c1OC [TMP, trimethoprim, reference compound]",–,–,–,–,1 µg/mL,"MIC (Enterococcus faecalis; ATCC29212, 18 h): 0.125 µg/mL; MIC (Listeria monocytogenes; [4]): 0.25 µg/mL; MIC (Pseudomonas aeruginosa; [5]): 8 µg/mL; MIC (Staphylococcus aureus; [6]): 0.5 µg/mL; MIC (Streptococcus pneumoniae; [7]): 4 µg/mL; MIC (Streptococcus pyogenes; [8]): 2 µg/mL"

# Source: patent US5877193A, “Use of N-(4-aryl-thiazol-2-yl)-sulfonamides” (Hoffmann-La Roche Inc., priority 1996, dated 1999)
